Patent US11648289B2, “Antibacterial method” (priority 2016, dated 2023)
No end group written: not given here.

How the values were obtained:
S. aureus (5) = conditions: Table 6B
Experimental: All the strains (see below) used in minimal inhibitory concentration (MIC) assays (Ovchinnikov et al., 2017, Front Microbiol., 8, p774, doi:10.3389/fmicb.2017.00774) were grown in BHI medium (Oxoid) at 30° C. without shaking. The tested strains were obtained from the LMG collection. […] NisinZ and micrococcin P1 were purified from source. Synthesized peptides were solubilized to concentrations of 10.0-0.1 mg/ml in 0.1% (vol/vol) trifluoroacetic acid and stored at −20° C. until use. Garvicin KS is made up of 3 peptides:
Bacteriocin activity was determined using a microtitre plate assay. The plates were incubated at 30° C. for 8 h and the growth was measured spectrophotometrically at 600 nm (A600) with 15 min intervals using SPECTROstarNano (BMG LABTECH, Germany). The MIC was defined as the bacteriocin concentration that inhibited the growth of the indicator strain by at least 50% in 200 μl culture (i.e., 50% of the turbidity of the control culture without bacteriocin).

E. faecium P040 INV-25 = conditions: E. faecium P040 INV-25, isolated from blood
Method in brief: (§1)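 Peptides were dissolved in 0.1% (vol/vol) trifluoroacetic acid as stocks of 10.0-0.1 mg/ml. Activity against each indicator strain was then measured by microtiter plate assay in BHI at 30° C, unshaken. The minimal concentration inhibiting growth by at least 50% was recorded as MIC.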

E. faecium P032 inv-4 = conditions: E. faecium P032 inv-4, isolated from blood
Method in brief: as §1

[1] = system: E. faecium LMGT2787 resistant mutants; conditions: only HR type found
Method in brief: as §1

E. faecium AH137 = conditions: E. faecium AH137, isolated from blood
Method in brief: as §1

E. faecium 130409015079* = conditions: E. faecium 130409015079, isolated from blood, Vancomycin-resistant
Method in brief: as §1

E. faecium PO1402593* = conditions: E. faecium PO1402593, isolated from blood, Vancomycin-resistant
Method in brief: as §1

E. faecium 14-597963* = conditions: E. faecium 14-597963, isolated from blood, Vancomycin-resistant
Method in brief: as §1

E. faecium 602589 = conditions: E. faecium 602589, isolated from blood
Method in brief: as §1

E. faecium 928379 A* = conditions: isolated from blood, Vancomycin-resistant
Method in brief: as §1

E. faecium A11 EFH2/00 = conditions: E. faecium A11 EFH2/00, isolated from blood
Method in brief: as §1

E. faecium UW6920 = conditions: E. faecium UW6920, isolated from blood
Method in brief: as §1

MKFKFNPTGTIVKKLTQYEIAWFKNKHGYYPWEIPRC [EntK1]
MIC (S. aureus (5)): >25 µg/mL | MIC 50 (E. faecium P040 INV-25): 0.02 µM | MIC 50 (E. faecium P032 inv-4): 0.02 µM | resistance of HR type mutants compared to the WT [1]: 500 times | MIC 50 (E. faecium AH137): 0.01 µM | MIC 50 (E. faecium 130409015079*): 0.02 µM | MIC 50 (E. faecium PO1402593*): 0.02 µM | MIC 50 (E. faecium 14-597963*): 0.045 µM | MIC 50 (E. faecium 602589): 0.045 µM | MIC 50 (E. faecium 928379 A*): 0.02 µM | MIC 50 (E. faecium A11 EFH2/00): 0.045 µM | MIC 50 (E. faecium UW6920): 0.045 µM

MLAKIKAMIKKFPNPYTLAAKLTTYEINWYKQQYGRYPWERPVA [EntEJ97]
MIC 50 (E. faecium P040 INV-25): 0.075 µM | MIC 50 (E. faecium P032 inv-4): 0.037 µM | resistance of HR type mutants compared to the WT [1]: 500 times | MIC 50 (E. faecium AH137): 0.075 µM | MIC 50 (E. faecium 130409015079*): 0.037 µM | MIC 50 (E. faecium PO1402593*): 0.075 µM | MIC 50 (E. faecium 14-597963*): 0.145 µM | MIC 50 (E. faecium 602589): 0.145 µM | MIC 50 (E. faecium 928379 A*): 0.075 µM | MIC 50 (E. faecium A11 EFH2/00): 0.075 µM | MIC 50 (E. faecium UW6920): 0.145 µM
